Our source for the IC50 values is patent publication US5459129A, “Condensed heterocyclic compounds, their production and use” (Takeda Chemical Industries, Ltd., priority 1990, dated 1995).

For test [1], the target named is T1, thymidylate acid synthase (TS) (Mus musculus, UniProt P07607).
T1 construct: endogenous in cells; host or cells: Meth A fibrosarcoma cells (sonicated; 100,000 x g supernatant)
As to the kind of experiment: Determination of TS inhibiting action. The format is biochemical. Particulars: roughly refined TS fraction from Meth A fibrosarcoma cells; [3H]dUMP, 1 hour at 37° C.; read-out: IC50 TS (concentration required for 50% inhibiting the TS activity). The procedure:
A roughly refined fraction of TS was prepared from Meth A fibrosarcoma cells serially cultivated in vitro. For culturing the cells, Eagle's minimum essential medium containing 10% (v/v) bovine fetal serum [MEM; Nissui Pharmaceutical Co. Ltd.] was used. The cells in logarithmic growth were recovered and washed twice with a physiological aqueous saline solution buffered with phosphate, which was then suspended in 0.2M sucrose, 0.01M Tris.HCl buffer solution (pH 7.5). The cells were destroyed by ultrasonic wave, and the suspension was subjected to centrifugation (100,000×g), then the supernatant was collected. Using bovine γ-groblin as the standard protein, the protein concentration was measured by using a protein.dye reagent (Bio-Rad), so that the protein concentration was adjusted to 10 mg/ml.
Enzymic reaction was conducted by partially modifying the method described in Biochemistry 5, 3546 (1966). The composition of the reaction medium was as follows; 0.058% (v/v) formaldehyde, 6.78 mM sodium fluoride, 0.2 mM 2-mercapto ethanol, 6.24 mg/ml bovine serum albumin, 80 μM 2'-deoxyuridine-5'-1 phosphoric acid (dUMP), 80 μM tetrahydrofolic acid, 2 mg/ml roughly refined TS fraction and 0.173M Tris.HCl buffer solution (pH 7.5). To the reaction medium were added the compounds of various concentrations obtained in Working Examples. 540 KBg of [^3 H] dUMP relative to 50 μl of the ultimate reaction medium was added, and the reaction was allowed to proceed for 1 hour at 37° C. in a 96-microwell plate. After completion of the reaction, 26.65% trichloroacetic acid and 3.33 mg/ml dUMP were added to suspend the reaction. To the reaction mixture was added 220 μl of 11.4 mg/ml activated charcoal. The whole mixture was subjected to centrifugation, and the radioactivity in 100 μl of the supernatant was measured by liquid scintillation counter to determine the concentration required for 50% inhibiting the TS activity (ICa50), as shown in Table 1.

The target of test [2] is T2, 5-aminoimidazole-4-carboxyamide ribonucleotide transformylase (AICARTF) (Homo sapiens, UniProt P31939).
T2 construct: AICARTF was prepared from CCRF-CEM human lymphoblast leukemia cells; endogenous in cells; host or cells: CCRF-CEM human lymphoblast leukemia cells
Put plainly: Measurement of AICARTF inhibiting action. In kind it is biochemical. Particulars: AICARTF prepared from CCRF-CEM human lymphoblast leukemia cells; absorbance at 298 nm for 15 minutes; read-out: IC50 AICARTF (concentration required for 50% inhibiting the activity of AICARTF). The procedure: AICARTF was prepared from CCRF-CEM human lymphoblast leukemia cells by partially modifying the method described in Biochemistry 20 337 (1981), S. J. Benkovic, et al.
The enzymic reaction was conducted by adding the compounds of various concentrations in Working Examples to 0.95 ml of a solution consisting of a […] Tris.HCl buffer solution (pH 7.4), 5 μM 2-mercaptoethanol,25 μM potassium chloride, 0.1 μM (-)-10-formyl tetrahydrofolic acid and AICARTF, and, before starting the reaction, 0.05 ml of 1 mM 5-aminoimidazole-4-carboxylamide ribonucleotide.
The UV spectrum was measured at 298 nm for 15 minutes at the interval of 15 seconds to evaluate by the increase of absorbance due to the production of tetrahydrofolic acid to determine the concentration required for 50% inhibiting the activity of AICARTF (IC50).

The subject of test [3] is Meth A fibrosarcoma (Meth A) cells. As to the kind of experiment: Inhibiting action against growth of Meth A fibrosarcoma cells in vitro. The format is cell-based. As to conditions: 72 hours culture, Coulter counter, read-out: IC50 (concentration required for decreasing the number of cells in the untreated control group by 50%). The procedure: Meth A cells (2×10^4 /ml) prepared by a conventional method were inoculated into each well of the 12-microwell plate (2.0 ml in a well), and subjected to standing culture at 37° C. under 5% CO2. The compounds obtained in Working Examples dissolved at appropriate concentrations were diluted to 2-10 times stepwise with an MEM (Nissui Pharmaceutical Co., Ltd.) solution, to and the resulting dilutions were added to the culture medium. The medium was again subjected to standing culture at 37° C. under 5% CO2 for 72 hours. Then, the total number of cells at each concentration was measured by Coulter counter (Coulter Electronic, Florida in U.S.A.), and the average value of the cells in three wells was expressed by the number of cells per milliliter.
The concentrations of the respective compounds required for decreasing the number of cells in the untreated control group by 50% was made IC50 of the respective compounds.

T1 sequence (P07607 whole entry): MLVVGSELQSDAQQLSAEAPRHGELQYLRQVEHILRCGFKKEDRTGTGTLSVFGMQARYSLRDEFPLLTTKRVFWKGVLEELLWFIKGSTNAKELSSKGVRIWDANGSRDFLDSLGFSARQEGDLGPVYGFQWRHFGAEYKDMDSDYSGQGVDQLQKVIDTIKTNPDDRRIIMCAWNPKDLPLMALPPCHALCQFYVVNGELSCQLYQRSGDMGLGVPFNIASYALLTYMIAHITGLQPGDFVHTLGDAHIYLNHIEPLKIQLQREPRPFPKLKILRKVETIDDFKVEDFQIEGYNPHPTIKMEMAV
T2 sequence (P31939 whole entry): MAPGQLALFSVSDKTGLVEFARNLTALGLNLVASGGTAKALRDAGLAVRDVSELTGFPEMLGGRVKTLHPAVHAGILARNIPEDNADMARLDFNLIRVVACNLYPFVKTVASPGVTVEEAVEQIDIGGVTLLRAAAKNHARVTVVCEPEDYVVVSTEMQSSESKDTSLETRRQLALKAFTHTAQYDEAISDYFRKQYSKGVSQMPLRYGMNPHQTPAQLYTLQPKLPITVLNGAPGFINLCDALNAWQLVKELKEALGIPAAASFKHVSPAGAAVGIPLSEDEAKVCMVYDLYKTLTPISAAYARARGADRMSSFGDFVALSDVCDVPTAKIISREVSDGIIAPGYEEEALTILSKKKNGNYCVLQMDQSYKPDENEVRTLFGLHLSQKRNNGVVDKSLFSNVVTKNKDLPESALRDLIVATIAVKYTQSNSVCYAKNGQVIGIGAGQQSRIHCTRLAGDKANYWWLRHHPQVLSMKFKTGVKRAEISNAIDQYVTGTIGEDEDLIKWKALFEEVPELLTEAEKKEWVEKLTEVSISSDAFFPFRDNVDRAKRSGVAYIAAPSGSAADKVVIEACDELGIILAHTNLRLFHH

For the compound `Nc1nc(N)c2c(CCCc3ccc(C(=O)N[C@@H](CCC(=O)N[C@@H](CCC(=O)N[C@@H](CCC(=O)O)C(=O)O)C(=O)O)C(=O)O)cc3)c[nH]c2n1` [Ex. 7, [N-[4-[3-(2,4-diamino-7H-pyrrolo[2,3-d]pyrimidin-5-yl)propyl]benzoyl]-γ-L-glutamyl]-γ-L-glutamyl-L-glutamic acid], the IC50 in test [1] was 40 µM; in test [2], 6 µM; in test [3], 0.58 µM.
As for `Nc1nc(N)c2c(CCCc3ccc(C(=O)N[C@@H](CCC(=O)N[C@@H](CCC(=O)N[C@@H](CCC(=O)N[C@@H](CCC(=O)N[C@@H](CCC(=O)O)C(=O)O)C(=O)O)C(=O)O)C(=O)O)C(=O)O)cc3)c[nH]c2n1` [Ex. 9, [N-[4-[3-(2,4-diamino-7H-pyrrolo[2,3-d]pyrimidin-5-yl)propyl]benzoyl]-γ-L-glutamyl]-γ-L-glutamyl-γ-L-glutamyl-γ-L-glutamyl-L-glutamic acid], the IC50 in test [1] is 20 µM; in test [2], 0.4 µM.
The like results for `Nc1nc(N)c2c(CCCc3ccc(C(=O)N[C@@H](CCC(=O)N[C@@H](CCC(=O)N[C@@H](CCC(=O)O)C(=O)O)C(=O)O)C(=O)O)cc3)c[nH]c2n1` [Ex. 8, [N-[4-[3-(2,4-diamino-7H-pyrrolo[2,3-d]pyrimidin-5-yl)propyl]benzoyl]-γ-L-glutamyl]-γ-L-glutamyl-γ-L-glutamic acid] were, in that order, 21 µM and 0.6 µM.
For the compound `Nc1nc(N)c2c(CCCc3ccc(C(=O)N[C@@H](CCC(=O)N[C@@H](CCC(=O)O)C(=O)O)C(=O)O)cc3)c[nH]c2n1` [Ex. 6, [N-[4-[3-(2,4-diamino-7H-pyrrolo[2,3-d]pyrimidin-5-yl)propyl]benzoyl]-γ-L-glutamyl]-L-glutamic acid], the IC50 was determined as 36 µM in test [1], 9 µM in test [2] and 0.61 µM in test [3].
For the compound `Nc1nc(N)c2c(CCCc3ccc(C(=O)N[C@@H](CCC(=O)N[C@@H](CCC(=O)N[C@@H](CCC(=O)N[C@@H](CCC(=O)N[C@@H](CCC(=O)N[C@@H](CCC(=O)O)C(=O)O)C(=O)O)C(=O)O)C(=O)O)C(=O)O)C(=O)O)cc3)c[nH]c2n1` [Ex. 10, [N-[4-[3-(2,4-diamino-7H-pyrrolo[2,3-d]pyrimidin-5-yl)propyl]benzoyl]-γ-L-glutamyl]-γ-L-glutamyl-γ-L-glutamyl-γ-L-glutamyl-γ-L-glutamyl-L-glutamic acid], the values for the IC50 in test [1] and in test [2] were 20 µM and 0.2 µM, respectively.
